# Test results: patent US8609723B2 (Beijing Dingguochangsheng Biotech., Co., Ltd., priority 2008, dated 2013)
# Tests used:
# male ICR mice = assay: Forced swimming test of mice; format: in vivo; conditions: 18.4 mg/kg single administration, vs control group
# Description: The mice were forced to swim on Days 3, 7 and 14 after administration, except that such experiment was not performed for the curcumin group on Day 14.
# Twenty four hours before the formal test, the mice were placed into a round glass container (height: 25 cm, diameter: 10 cm) filled with water (depth: 10 cm) with a temperature of 24±1° C., and forced to conduct swim training for 15 min. Twenty four hours later, the mice were placed into the round glass container filled with water (depth: 10 cm) again and forced to swim for 6 min. The accumulative immobile time within the last 4 min was observed and recorded for each mouse. The immobile time is intended to mean the period within which the mouse stops to struggle, floats in the water and keeps immobile, or only makes a few slight movements that are necessary to keep its head floating on the surface of water.
# [1] = system: chronically stressed rats; assay: Measurement of body temperature of chronically stressed rats; format: in vivo; conditions: for Body temperature after stress: chronic stress 21 days
# Source text: The rats in the normal control group were raised normally under a condition without any stimulation except for weighing body weight, measuring body temperature, and subjected to sugar test. All of other groups were subjected to stimulations of same type and same strength. During the experiment, different types of stimulations were applied in an unpredictable manner, and the same type of stimulation was enhanced each time.
# The stress protocol was shown as follows: horizontally shaking at a high speed for 45 min; nipping tails (1 cm from the tail root): 1 min; depriving of water for 24 h; forbidding moving for 1.5 h; fasting for 24 h; stimulating with ice water (water temperature: 10° C.) for 5 min; electric shocking (1 mA, time course: is, 1 shock/min) the bottoms of feet for 30 min; changing cages and raising separately for 24 h; forbidding moving for 2 h; nipping tails (1 cm from the root of tail) for 1 min; depriving of water for 24 h; horizontally shaking at a high speed for 1.5 h; fasting for 24 h; nipping tails (1 cm from the tail root): 1 min; electric shocking (1 mA, time course: 1 s, 1 shock/min) the bottoms of feet for 40 min; stimulating with ice water for 5 min; changing cages and raising separately for 24 h; horizontally shaking at a high speed for 60 min; electric shocking (1 mA, time course: 1 s, 1 shock/min) the bottoms of feet for 50 min; depriving of water for 24 h; forbidding moving for 2.5 h; and 24 h social isolation.
# The front part of a digital thermometer was coated with liquid paraffin, and then inserted into the anus of a rat with a depth of approximately 1 cm. The temperature was read twice accordingly and averaged.
# S-180 sarcoma cells [2] = assay: Antitumor experiment of tumor S-180-bearing mice; format: in vivo; conditions: 7-day dosage by single administration, 7 days
# Source text: During the experiment, the mice were inoculated with S-180 sarcoma cells (×10^7) in armpits. […] Seven days later, the mice were sacrificed by decollation. The tumors were removed, and the mice and the tumors were weighed separately.
# S-180 cells = assay: Effect on apoptosis of tumor cells, cell cycle by flow cytometry; format: in vivo, mice; conditions: sarcoma cell cycle, S-180 tumor fluid, 7 days
# Source text: During the experiment, the mice were inoculated with S-180 cells (×10^7) in armpits. Seven days later, the mice were sacrificed by decollation and the tumors were removed. Tumor fluid was collected from tumors, and used for determining cell cycle by flow cytometry after ethanol fixation.
# S-180 sarcoma cells [3] = assay: Survival experiment of tumor-bearing mice; format: in vivo; conditions: S-180-bearing mice, 7-day dosage by single administration; 95% confidence interval 12.8~20.2 days
# Description: During the experiment, the mice were inoculated with S-180 sarcoma cells (×10^5) in armpits, and the next day the administration begins. The survival rate was recorded for each group.
# Bladder cancer cell = assay: Inhibitory effect on tumor cells, MTT method; format: cell-based; conditions: 25 μM, 72 h
# Description: (§1) The tumor cells with a stable passage feature, including Hela tumor cells, renal cancer cells, breast cancer cells, gastric cancer cells, rectal cancer cells, pulmonary cancer cells, hepatic cancer cells HepG2, prostate cancer cells, esophageal cancer cells, sarcoma cells, glioma cells, melanoma cells, lymphoma cells, and bladder cancer cells, were counted under a microscope (×10^4), and cultured in a 96-well plate under CO2 saturated water vapor for 24 h.
# Breast cancer cell BT474 = assay: Inhibitory effect on tumor cells, MTT method; format: cell-based; conditions: Breast cancer cell BT474, 25 μM, 72 h
# Description: as §1
# Esophageal cancer cell = assay: Inhibitory effect on tumor cells, MTT method; format: cell-based; conditions: 25 μM, 72 h
# Description: as §1
# [4] = system: Gastric cancer cell MGC80-3; assay: Inhibitory effect on tumor cells, MTT method; format: cell-based; conditions: Gastric cancer cell MGC80-3, 25 μM, 72 h
# Description: as §1
# Glioma cell = assay: Inhibitory effect on tumor cells, MTT method; format: cell-based; conditions: 25 μM, 72 h
# Description: as §1
# Hela cell = assay: Inhibitory effect on tumor cells, MTT method; format: cell-based; conditions: 25 μM, 72 h
# Description: as §1
# [5] = system: Hepatic cancer cell HepG2; assay: Inhibitory effect on tumor cells, MTT method; format: cell-based; conditions: Hepatic cancer cell HepG2, 25 μM, 72 h
# Description: as §1
# Lymphoma cell = assay: Inhibitory effect on tumor cells, MTT method; format: cell-based; conditions: 25 μM, 72 h
# Description: as §1
# Melanoma cell = assay: Inhibitory effect on tumor cells, MTT method; format: cell-based; conditions: 25 μM, 72 h
# Description: as §1
# Prostate cancer cell = assay: Inhibitory effect on tumor cells, MTT method; format: cell-based; conditions: 25 μM, 72 h
# Description: as §1
# [6] = system: Pulmonary cancer cell A549; assay: Inhibitory effect on tumor cells, MTT method; format: cell-based; conditions: Pulmonary cancer cell A549, 25 μM, 72 h
# Description: as §1
# [7] = system: Rectal cancer cell HCT116; assay: Inhibitory effect on tumor cells, MTT method; format: cell-based; conditions: Rectal cancer cell HCT116, 25 μM, 72 h
# Description: as §1
# Renal cancer cell 7860 = assay: Inhibitory effect on tumor cells, MTT method; format: cell-based; conditions: Renal cancer cell 7860, 25 μM, 72 h
# Description: as §1
# Sarcoma cell = assay: Inhibitory effect on tumor cells, MTT method; format: cell-based; conditions: 25 μM, 72 h
# Description: as §1
# [8] = 4.6 mg/kg subcutaneous once every 7 days
# [9] = 9.2 mg/kg subcutaneous once every 7 days
# [10] = 18.4 mg/kg subcutaneous once every 7 days
substance,measurement,setting,value
curcumin decanoate [long acting curcumin],"reduced the accumulative immobile time (forced swimming, mice)",male ICR mice; 3 days after administration,62.1%
same,"reduced the accumulative immobile time (forced swimming, mice)",male ICR mice; 7 days after administration,74.7%
same,"reduced the accumulative immobile time (forced swimming, mice)",male ICR mice; 14 days after administration,37.8%
same,Body temperature before stress,[1]; [8],37.06 ± 0.125 °C
same,Body temperature after stress,[1]; [8],37.40 ± 0.079 °C
same,Body temperature before stress,[1]; [9],37.06 ± 0.158 °C
same,Body temperature after stress,[1]; [9],37.45 ± 0.074 °C
same,Body temperature before stress,[1]; [10],37.00 ± 0.122 °C
same,Body temperature after stress,[1]; [10],37.48 ± 0.088 °C
same,inhibitory rate of tumors,S-180 sarcoma cells [2]; high dosage group,50.1%
same,inhibitory rate of tumors,S-180 sarcoma cells [2]; low dosage group,28.5%
same,inhibitory rate of tumors,S-180 sarcoma cells [2]; medium dosage group,57.8%
same,APO % (apoptosis level of tumor cells),S-180 cells,44.7%
same,G1 %,S-180 cells,64.9%
same,G2 %,S-180 cells,1.0%
same,S %,S-180 cells,34.1%
same,medium survival time,S-180 sarcoma cells [3],17.5 days
same,Inhibitory rate (%),Bladder cancer cell,55.2 ± 1.0%
same,Inhibitory rate (%),Breast cancer cell BT474,52.7 ± 1.6%
same,Inhibitory rate (%),Esophageal cancer cell,35.5 ± 1.1%
same,Inhibitory rate (%),[4],42.6 ± 1.7%
same,Inhibitory rate (%),Glioma cell,58.8 ± 1.5%
same,Inhibitory rate (%),Hela cell,37.3 ± 2.4%
same,Inhibitory rate (%),[5],43.7 ± 1.4%
same,Inhibitory rate (%),Lymphoma cell,55.8 ± 1.7%
same,Inhibitory rate (%),Melanoma cell,49.9 ± 2.0. %
same,Inhibitory rate (%),Prostate cancer cell,39.7 ± 1.3%
same,Inhibitory rate (%),[6],35.9 ± 1.2%
same,Inhibitory rate (%),[7],58.9 ± 2.1%
same,Inhibitory rate (%),Renal cancer cell 7860,60.6%
same,Inhibitory rate (%),Sarcoma cell,45.5 ± 1.6%
